Laboratory results: the NIST ThermoML archive (doi:10.1021/acs.jced.5b01023)
± gives the expanded uncertainty stated by the source.

Experiment: xn = mol fraction of the nth substance listed
Conditions: for surface tension liquid-gas: Wilhelmy plates; for viscosity / mass density: 101 kPa, Liquid; for viscosity: Capillary tube (Ostwald / Ubbelohde) method; for mass density: Vibrating tube method

CC(=O)[O-].CCn1cc[n+](C)c1 [1-ethyl-3-methylimidazolium acetate] + CC(C)O
Conditions	mass density [kg/m3]	surface tension liquid-gas [mN/m]	viscosity [mPa·s]
288.15 K, x1 = 0.1	852.68 ± 0.2	23.6 ± 0.6	5.55 ± 0.066
288.15 K, x1 = 0.2	901.6 ± 0.24	25.5 ± 0.6	8.842 ± 0.11
288.15 K, x1 = 0.3	941.78 ± 0.3	27.5 ± 0.6	14.85 ± 0.18
288.15 K, x1 = 0.4	976.37 ± 0.37	29.4 ± 0.6	24.85 ± 0.32
288.15 K, x1 = 0.5	1006.01 ± 0.47	31.5 ± 0.6	40.69 ± 0.54
288.15 K, x1 = 0.5997	–	33 ± 0.6	–
288.15 K, x1 = 0.5998	1031.55 ± 0.6	–	64.17 ± 0.88
288.15 K, x1 = 0.7	1053.83 ± 0.76	35.1 ± 0.7	100.7 ± 1.8
288.15 K, x1 = 0.7993	1072.97 ± 0.94	–	147.9 ± 3.2
288.15 K, x1 = 0.7994	–	37.7 ± 0.7	–
288.15 K, x1 = 0.9	1090.17 ± 1.1	41.2 ± 0.7	212.4 ± 5.7
288.15 K, x1 = 1	1105.2 ± 1.4	47.7 ± 0.8	283.8 ± 8.9
298.15 K, x1 = 0.1	845.22 ± 0.2	23.2 ± 0.6	4.171 ± 0.05
298.15 K, x1 = 0.2	894.12 ± 0.24	25.1 ± 0.6	6.64 ± 0.08
298.15 K, x1 = 0.3	934.95 ± 0.3	26.9 ± 0.6	10.84 ± 0.13
298.15 K, x1 = 0.4	969.7 ± 0.37	29 ± 0.6	17.31 ± 0.22
298.15 K, x1 = 0.5	999.47 ± 0.46	31.2 ± 0.6	26.86 ± 0.36
298.15 K, x1 = 0.5997	–	32.6 ± 0.6	–
298.15 K, x1 = 0.5998	1025.12 ± 0.59	–	40.4 ± 0.55
298.15 K, x1 = 0.7	1047.51 ± 0.75	34.5 ± 0.7	58.42 ± 0.82
298.15 K, x1 = 0.7993	1066.77 ± 0.92	–	81.31 ± 1.3
298.15 K, x1 = 0.7994	–	37.4 ± 0.7	–
298.15 K, x1 = 0.9	1084.05 ± 1.1	40.9 ± 0.7	109.9 ± 2.2
298.15 K, x1 = 1	1099.03 ± 1.4	47.1 ± 0.8	139 ± 3.1
308.15 K, x1 = 0.1	837.68 ± 0.21	22.5 ± 0.6	3.204 ± 0.038
308.15 K, x1 = 0.2	887.04 ± 0.24	24.6 ± 0.6	5.142 ± 0.062
308.15 K, x1 = 0.3	928.14 ± 0.3	26.6 ± 0.6	8.186 ± 0.1
308.15 K, x1 = 0.4	963.07 ± 0.37	28.3 ± 0.6	12.6 ± 0.16
308.15 K, x1 = 0.5	992.98 ± 0.46	30.5 ± 0.6	18.61 ± 0.24
308.15 K, x1 = 0.5997	–	32.1 ± 0.6	–
308.15 K, x1 = 0.5998	1018.74 ± 0.58	–	26.86 ± 0.36
308.15 K, x1 = 0.7	1041.21 ± 0.74	34.1 ± 0.7	36.9 ± 0.52
308.15 K, x1 = 0.7993	1060.56 ± 0.91	–	49.32 ± 0.72
308.15 K, x1 = 0.7994	–	37 ± 0.7	–
308.15 K, x1 = 0.9	1077.92 ± 1.1	40.5 ± 0.7	63.37 ± 0.96
308.15 K, x1 = 1	1092.93 ± 1.3	46.6 ± 0.8	77.32 ± 1.3
318.15 K, x1 = 0.1	829.99 ± 0.21	21.8 ± 0.6	2.511 ± 0.03
318.15 K, x1 = 0.2	879.94 ± 0.24	24.1 ± 0.6	4.067 ± 0.049
318.15 K, x1 = 0.3	921.35 ± 0.3	26.1 ± 0.6	6.344 ± 0.078
318.15 K, x1 = 0.4	956.47 ± 0.37	27.9 ± 0.6	9.506 ± 0.12
318.15 K, x1 = 0.5	986.52 ± 0.46	29.9 ± 0.6	13.61 ± 0.18
318.15 K, x1 = 0.5997	–	31.6 ± 0.6	–
318.15 K, x1 = 0.5998	1012.39 ± 0.57	–	18.87 ± 0.25
318.15 K, x1 = 0.7	1034.96 ± 0.72	33.7 ± 0.7	25.08 ± 0.35
318.15 K, x1 = 0.7993	1054.38 ± 0.9	–	32.33 ± 0.46
318.15 K, x1 = 0.7994	–	36.8 ± 0.7	–
318.15 K, x1 = 0.9	1071.81 ± 1.1	40.2 ± 0.7	40.36 ± 0.6
318.15 K, x1 = 1	1086.86 ± 1.3	46.1 ± 0.8	47.37 ± 0.73
328.15 K, x1 = 0.1	822.14 ± 0.21	20.8 ± 0.6	1.998 ± 0.024
328.15 K, x1 = 0.2	872.8 ± 0.25	23.5 ± 0.6	3.272 ± 0.04
328.15 K, x1 = 0.3	914.57 ± 0.3	25.5 ± 0.6	5.049 ± 0.063
328.15 K, x1 = 0.4	949.91 ± 0.37	27.4 ± 0.6	7.378 ± 0.093
328.15 K, x1 = 0.5	980.11 ± 0.46	29.6 ± 0.6	10.28 ± 0.13
328.15 K, x1 = 0.5997	–	31.5 ± 0.6	–
328.15 K, x1 = 0.5998	1006.1 ± 0.56	–	13.77 ± 0.18
328.15 K, x1 = 0.7	1028.76 ± 0.71	33.4 ± 0.7	17.83 ± 0.24
328.15 K, x1 = 0.7993	1048.25 ± 0.89	–	22.39 ± 0.32
328.15 K, x1 = 0.7994	–	36.4 ± 0.7	–
328.15 K, x1 = 0.9	1065.74 ± 1.1	40 ± 0.7	27.23 ± 0.4
328.15 K, x1 = 1	1080.82 ± 1.3	45.9 ± 0.8	31.29 ± 0.48
338.15 K, x1 = 0.1	814.08 ± 0.21	20.1 ± 0.6	1.617 ± 0.019
338.15 K, x1 = 0.2	865.6 ± 0.25	22.6 ± 0.6	2.683 ± 0.032
338.15 K, x1 = 0.3	907.78 ± 0.3	25 ± 0.6	4.086 ± 0.051
338.15 K, x1 = 0.4	943.37 ± 0.37	26.9 ± 0.6	5.876 ± 0.074
338.15 K, x1 = 0.5	973.74 ± 0.46	29.1 ± 0.6	8.019 ± 0.1
338.15 K, x1 = 0.5997	–	30.7 ± 0.6	–
338.15 K, x1 = 0.5998	999.84 ± 0.55	–	10.46 ± 0.14
338.15 K, x1 = 0.7	1022.6 ± 0.7	32.9 ± 0.7	13.23 ± 0.18
338.15 K, x1 = 0.7993	1042.17 ± 0.87	–	16.22 ± 0.23
338.15 K, x1 = 0.7994	–	36 ± 0.7	–
338.15 K, x1 = 0.9	1059.72 ± 1.1	39.3 ± 0.7	19.37 ± 0.29
338.15 K, x1 = 1	1074.83 ± 1.3	45.4 ± 0.8	21.85 ± 0.33
